Values quoted from earlier work as cited in publication PMC2074382 (British Journal of Cancer, 1996).
Counter-ions that a name gives are not always drawn.

Tested on: HT-29 and SW-48 colon, PC-3 prostate, MX-1 breast, H460 lung, SKOV3 ovarian and KB epidermoid carcinomas xenografts
Details: HT-29, SW-48, PC-3, MX-1, H460, SKOV3, KB; ref Emerson et al., 1993, 1994, 1995; cited from earlier work

## CC[C@@]1(O)C(=O)OCc2c1cc1n(c2=O)Cc2c-1nc1cc3c(cc1c2CN1CCN(C)CC1)OCCO3 [GI147211, [7 - (methylpiperazinomethylene) - 10,11 - ethylene-dioxy-20(S)] camptothecin dihydrochloride]
  cytotoxicity against xenografts of human cancers: cytotoxicity against several xenografts of human cancers
